Measured values published in article PMC8151276, “An Integrated Approach toward NanoBRET Tracers for Analysis of GPCR Ligand Engagement” (Molecules, 2021).

Tests used:
Format in all cases: binding
GNRHR = target: T1, GNRHR (Homo sapiens, UniProt P30968); experiment: NanoBRET screen HiBiT-GNRHR in HEK293
T1 construct: purchased Promega (in-house HiBiT-GPCR construct library, NanoBRET)
T1 sequence (P30968 1-328): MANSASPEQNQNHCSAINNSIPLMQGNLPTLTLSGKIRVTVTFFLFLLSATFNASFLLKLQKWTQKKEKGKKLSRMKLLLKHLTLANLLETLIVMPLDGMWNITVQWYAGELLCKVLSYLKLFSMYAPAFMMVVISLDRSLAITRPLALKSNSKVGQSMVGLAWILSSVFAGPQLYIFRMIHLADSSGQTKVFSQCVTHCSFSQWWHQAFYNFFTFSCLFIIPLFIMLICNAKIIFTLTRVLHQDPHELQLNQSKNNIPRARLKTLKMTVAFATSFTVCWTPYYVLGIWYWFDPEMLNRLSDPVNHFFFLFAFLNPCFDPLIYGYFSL
Description: (§1) Each tracer candidate was screened across the entire library of HiBiT-GPCR constructs using NanoBRET as the detection modality. As depicted in Figure 4A, the specificity of interactions was evaluated through decrease in BRET due to competitive displacement of a bound tracer by excess parental compound. Each tracer was analyzed for binding to each HiBiT-GPCR fusion in the absence and in the presence of competing parental compound. Briefly, HEK293 cells were transfected with HiBiT-GPCR constructs diluted into promoterless DNA to reduce expression and maximize translocation to the cell surface. Each tracer candidate was then screened at concentrations of 1 μM and 0.1 μM across cells expressing these fusions. Cells were treated for 1.5 h with tracer either alone or in the presence of 20 μM competing parental compound (i.e., control). BRET was measured upon addition of purified LgBiT and subsequent complementation with HiBiT genetically fused to a GPCR. The specificity of interactions was assessed through a decrease in BRET signal due to competitive displacement of the bound tracer. To further gauge the robustness of these interactions, the fold response over the control (i.e., BRETtracer/BRETcontrol) was calculated. We chose a 1.5-fold response, which translates to ≥7-fold signal over noise as the minimal threshold required to score an interaction as positive. […]. Below we highlight the screening results obtained for our exemplary fluorescent tracers based on Clozapine, Amitriptyline and AZD1283.
(§2) HiBiT-GPCR DNA constructs were diluted in 10 mM Tris pH 8 to a final concentration of 0.01 μg/μL, arrayed in 96-well plates and stored at −20 °C. For transfection, HEK293 cells were suspended in Opti-MEM (without phenol red) supplemented with 2% fetal bovine serum (Seradigm) and 100 units/mL penicillin–streptomycin (Gibco) at a final concentration of 220,000 cells/mL and dispensed into white 96-well plates at 90 μL/well. Subsequent transfections and screens were carried using an Agilent Bravo Automated Liquid Handling Platform. First, the 96-well HiBiT DNA arrays were diluted 25-fold in Opti-MEM (without serum or phenol red) to a final concentration of 0.0004 μg/μL and 20 μL of the diluted DNAs were transferred into new 96-well plates. Next, promoterless carrier DNA (1 μg/μL) was diluted 25-fold (0.04 μg/μL) and then dispensed into the diluted arrays at 20 μL/well. Following brief mixing, Viafect transfection reagent (Promega) diluted 16-fold into Opti-MEM was dispensed into the plates at 40 μL/well. After mixing by pipetting, plates were incubated for 10 min on the pipetting station deck. The DNA-transfection reagent complexes were then added to plates containing cells. To facilitate the screen, 10 μL of DNA-transfection reagent complexes were added in duplicates to the top 4 and bottom 4 rows, resulting in two identical 48-well arrays per plate. Plates with transfected cells were incubated for 18–20 h at 37 °C/5% CO2. A screen of each tracer across the entire library using two different concentrations requires duplicate plates of transfected cells. Depending on the number of tracers being screened, transfections can be scaled up using the same ratios. The next day, for each tracer, four 20× screening solutions in tracer dilution buffer (Promega) were prepared: two duplicates at final concentration of 20 μM and two duplicates at a final concentration of 2 μM. A competing unmodified compound was added to one of each duplicate at a final concentration of 400 μM. The four resulting solutions were diluted 4-fold in Opti-MEM without serum or phenol red to generate 5× solutions (5 µM and 0.5 µM tracer +/− 100 μM competing compound). To screen the library, a BioTek MultiFlo FX liquid dispenser was used to dispense 22.5 µL of tracer solution to the top 4 rows and 22.5 µL tracer + competing compound solution to the 4 bottom rows. Plates were briefly mixed on an orbital shaker and incubated for 1.5 h at room temperature. […]

PTGIR = target: T2, PTGIR (Homo sapiens, UniProt P43119); experiment: NanoBRET screen HiBiT-PTGIR in HEK293
T2 construct: purchased Promega (in-house HiBiT-GPCR construct library, NanoBRET)
Description: as §1, §2

GRM3 = target: T3, GRM3 (Homo sapiens, UniProt Q14832); experiment: NanoBRET screen HiBiT-GRM3 in HEK293
T3 construct: purchased Promega (in-house HiBiT-GPCR construct library, NanoBRET)
Description: as §1, §2

HRH3 = target: T4, HRH3 (Homo sapiens, UniProt Q9Y5N1); experiment: NanoBRET screen HiBiT-HRH3 in HEK293
T4 construct: purchased Promega (in-house HiBiT-GPCR construct library, NanoBRET)
Description: as §1, §2

[1] = tracer at 0.1μM, listed as amitriptyline-b-2-NB590
[2] = tracer at 1μM, listed as amitriptyline-b-2-NB590

T3 sequence (Q14832 23-879): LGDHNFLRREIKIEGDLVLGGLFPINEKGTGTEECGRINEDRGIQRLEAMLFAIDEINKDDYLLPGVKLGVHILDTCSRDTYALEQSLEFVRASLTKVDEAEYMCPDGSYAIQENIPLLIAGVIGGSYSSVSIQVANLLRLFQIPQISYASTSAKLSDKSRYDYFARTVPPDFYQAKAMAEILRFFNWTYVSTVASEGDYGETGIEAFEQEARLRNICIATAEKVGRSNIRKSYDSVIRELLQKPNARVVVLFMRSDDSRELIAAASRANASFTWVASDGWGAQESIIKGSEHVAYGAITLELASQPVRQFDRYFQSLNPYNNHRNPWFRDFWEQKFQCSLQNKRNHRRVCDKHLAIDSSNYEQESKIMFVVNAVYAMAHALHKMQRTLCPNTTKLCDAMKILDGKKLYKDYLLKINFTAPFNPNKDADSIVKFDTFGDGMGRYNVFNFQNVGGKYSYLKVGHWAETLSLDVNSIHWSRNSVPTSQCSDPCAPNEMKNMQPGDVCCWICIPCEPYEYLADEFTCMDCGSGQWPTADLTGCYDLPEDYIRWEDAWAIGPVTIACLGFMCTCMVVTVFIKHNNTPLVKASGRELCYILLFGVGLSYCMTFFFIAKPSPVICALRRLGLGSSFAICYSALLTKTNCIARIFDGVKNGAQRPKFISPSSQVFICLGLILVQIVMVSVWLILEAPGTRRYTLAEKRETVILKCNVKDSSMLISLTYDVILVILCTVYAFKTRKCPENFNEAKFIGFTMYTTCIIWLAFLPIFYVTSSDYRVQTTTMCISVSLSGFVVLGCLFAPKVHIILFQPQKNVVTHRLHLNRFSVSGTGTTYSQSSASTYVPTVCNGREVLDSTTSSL
T4 sequence (Q9Y5N1 whole entry): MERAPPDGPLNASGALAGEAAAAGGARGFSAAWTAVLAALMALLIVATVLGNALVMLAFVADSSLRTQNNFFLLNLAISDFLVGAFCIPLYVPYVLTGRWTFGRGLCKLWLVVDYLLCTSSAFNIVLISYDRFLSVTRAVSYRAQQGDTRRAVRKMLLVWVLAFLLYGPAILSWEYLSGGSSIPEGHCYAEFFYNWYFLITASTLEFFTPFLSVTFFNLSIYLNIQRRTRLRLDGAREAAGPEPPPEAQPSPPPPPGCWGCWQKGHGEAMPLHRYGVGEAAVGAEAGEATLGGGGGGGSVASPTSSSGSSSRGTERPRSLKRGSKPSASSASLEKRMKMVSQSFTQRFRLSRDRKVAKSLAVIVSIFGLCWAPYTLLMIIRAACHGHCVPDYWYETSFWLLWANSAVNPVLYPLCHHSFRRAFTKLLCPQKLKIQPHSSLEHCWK
T2 sequence (P43119 whole entry): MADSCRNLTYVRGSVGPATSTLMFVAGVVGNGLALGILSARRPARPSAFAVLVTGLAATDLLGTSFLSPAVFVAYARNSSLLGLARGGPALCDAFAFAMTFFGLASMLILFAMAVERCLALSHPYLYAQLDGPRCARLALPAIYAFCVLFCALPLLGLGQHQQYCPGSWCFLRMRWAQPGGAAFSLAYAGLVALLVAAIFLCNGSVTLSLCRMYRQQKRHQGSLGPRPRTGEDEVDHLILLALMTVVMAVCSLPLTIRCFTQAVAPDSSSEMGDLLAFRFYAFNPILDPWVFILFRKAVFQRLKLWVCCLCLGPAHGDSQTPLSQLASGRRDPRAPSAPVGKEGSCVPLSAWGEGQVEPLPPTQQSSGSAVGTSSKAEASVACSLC

Compound: CCOC(=O)c1cc(C#N)c(N2CCC(C(=O)NS(=O)(=O)Cc3ccccc3/C=C/C(=O)NCCNC(=O)CCc3ccc4n3[B-](F)(F)[N+]3=C(c5ccc[nH]5)C=CC3=C4)CC2)nc1C [AZD1283-1-NB590]
- NanoBRET Fold Response (GNRHR; GNRHR, 0.1μM): 1.09
- NanoBRET Fold Response (GNRHR; GNRHR, 1μM): 1.08
- NanoBRET Fold Response (PTGIR; PTGIR, 0.1μM): 1.04
- NanoBRET Fold Response (PTGIR; PTGIR, 1μM): 1.07
- NanoBRET Fold Response (GRM3; GRM3, 0.1μM): 0.97
- NanoBRET Fold Response (GRM3; GRM3, 1μM): 0.99
- NanoBRET Fold Response (HRH3; HRH3, 0.1μM): 1.16
- NanoBRET Fold Response (HRH3; HRH3, 1μM): 0.87

Compound: N#CN=C(NCCCOc1cccc(CN2CCCCC2)c1)NCCNC(=O)CCOCCOCCOCCOCCNC(=O)CCc1ccc2n1[B-](F)(F)[N+]1=C(c3ccc[nH]3)C=CC1=C2 [Aminopotentidine-2-NB590]
- NanoBRET Fold Response (GNRHR; GNRHR, tracer 0.1μM): 1.04
- NanoBRET Fold Response (GNRHR; GNRHR, tracer 1μM): 0.98
- NanoBRET Fold Response (PTGIR; PTGIR, tracer 0.1μM): 1.03
- NanoBRET Fold Response (PTGIR; PTGIR, tracer 1μM): 1.03
- NanoBRET Fold Response (GRM3; GRM3, tracer 0.1μM): 1.01
- NanoBRET Fold Response (GRM3; GRM3, tracer 1μM): 1.03
- NanoBRET Fold Response (HRH3; HRH3, tracer 0.1μM): 2.54
- NanoBRET Fold Response (HRH3; HRH3, tracer 1μM): 2.06

Compound: CN(C)CCC=C1c2ccccc2CCc2ccc(C(=O)NCCNC(=O)CCOCCOCCOCCOCCNC(=O)CCc3ccc4n3[B-](F)(F)[N+]3=C(c5ccc[nH]5)C=CC3=C4)cc21 [Amitriptyline-a-2-NB590]
- NanoBRET Fold Response (GNRHR; tracer at 0.1μM): 0.97
- NanoBRET Fold Response (GNRHR; tracer at 1μM): 1.06
- NanoBRET Fold Response (HRH3; tracer at 0.1μM): 1.01
- NanoBRET Fold Response (HRH3; tracer at 1μM): 0.94

Compound: CN(C)CCC=C1c2ccccc2CCc2ccc(C(=O)NCCNC(=O)CCOCCOCCOCCOCCNC(=O)CCc3ccc4n3[B-](F)(F)[N+]3=C(c5ccc[nH]5)C=CC3=C4)cc21 [Amitriptyline-b-2-NB590]
- NanoBRET Fold Response (GNRHR; [1]): 1.21
- NanoBRET Fold Response (GNRHR; [2]): 0.91
- NanoBRET Fold Response (PTGIR; PTGIR, tracer 0.1μM): 0.99
- NanoBRET Fold Response (PTGIR; PTGIR, tracer 1μM): 0.98
- NanoBRET Fold Response (GRM3; GRM3, tracer 0.1μM): 1.00
- NanoBRET Fold Response (GRM3; GRM3, tracer 1μM): 1.03
- NanoBRET Fold Response (HRH3; [1]): 1.62
- NanoBRET Fold Response (HRH3; [2]): 1.31

Compound: CN(CCC=C1c2ccccc2CCc2ccccc21)C(=O)CCOCCOCCOCCOCCNC(=O)CCc1ccc2n1[B-](F)(F)[N+]1=C(c3ccc[nH]3)C=CC1=C2 [Amitriptyline-e-2-NB590]
- NanoBRET Fold Response (HRH3; tracer at 1μM): 0.95

Compound: COc1ccc2c(n1)c(CCNC(C)=O)cn2CCNC(=O)CCc1ccc2n1[B-](F)(F)[N+]1=C(c3ccc[nH]3)C=CC1=C2 [Azamelatonin-1-NB590]
- NanoBRET Fold Response (GNRHR; 0.1μM tracer): 0.96
- NanoBRET Fold Response (GNRHR; 1μM tracer): 1.06
- NanoBRET Fold Response (PTGIR; 0.1μM tracer): 0.94
- NanoBRET Fold Response (PTGIR; 1μM tracer): 1.06
- NanoBRET Fold Response (GRM3; 0.1μM tracer): 0.95
- NanoBRET Fold Response (GRM3; 1μM tracer): 1.02
- NanoBRET Fold Response (HRH3; 0.1μM tracer): 1.07
- NanoBRET Fold Response (HRH3; 1μM tracer): 1.07

Compound: COc1ccc2[nH]c(-c3ccc(CNC(=O)CCOCCOCCOCCOCCNC(=O)CCc4ccc5n4[B-](F)(F)[N+]4=C(c6ccc[nH]6)C=CC4=C5)cc3)c(CCNC(C)=O)c2n1 [AzomelatoninICO9-2-NB590]
- NanoBRET Fold Response (GNRHR; 0.1μM tracer): 0.61
- NanoBRET Fold Response (GNRHR; 1μM tracer): 0.98
- NanoBRET Fold Response (PTGIR; 0.1μM tracer): 1.03
- NanoBRET Fold Response (PTGIR; 1μM tracer): 0.98
- NanoBRET Fold Response (GRM3; 0.1μM tracer): 1.03
- NanoBRET Fold Response (GRM3; 1μM tracer): 0.85
- NanoBRET Fold Response (HRH3; 0.1μM tracer): 1.09
- NanoBRET Fold Response (HRH3; 1μM tracer): 1.03
